Measured values published in ChEMBL document CHEMBL1201862, “PubChem BioAssay data set” (2004).
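Each compound was tested at five concentrations against cells in 96-well plates for 48 hours. At the GI50, growth is halved.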 The source made the active and inactive calls. Cut-off read from the data, not from the text of the source: active = GI50 up to about 1.1 µM and inactive = higher.

Assays:
Assay in all cases: NCI tumour cell line growth inhibition, 48 h
[1] = test system: SK-MEL-5
[2] = test system: HOP-18
[3] = test system: UACC-62
[4] = test system: NCI/ADR-RES
[5] = test system: DMS-273
[6] = test system: SN12C
[7] = test system: SNB-78
[8] = test system: OVCAR-8
[9] = test system: RXF 393
[10] = test system: DMS-114
[11] = test system: HT-29
[12] = test system: M19-MEL
[13] = test system: A549
[14] = test system: XF498
[15] = test system: HCT-116
[16] = test system: NCI-H460
[17] = test system: SF-268
[18] = test system: Hs-578T
[19] = test system: MDA-N
[20] = test system: SR

Structure (SMILES)	GI50 [1]	GI50 [2]	GI50 [3]	GI50 [4]	GI50 [5]	GI50 [6]	GI50 [7]	GI50 [8]	GI50 [9]	GI50 [10]	GI50 [11]	GI50 [12]	GI50 [13]	GI50 [14]	GI50 [15]	GI50 [16]	GI50 [17]	GI50 [18]	GI50 [19]	GI50 [20]
COc1cc([C@@H]2c3cc4c(c(O[C@@H]5O[C@H]6CO[C@@H](C)O[C@H]6[C@H](O)[C@@H]5O)c3C[C@H]3COC(=O)[C@@H]32)OCO4)cc(OC)c1O	5.08 µM (inactive)	11.7 µM (inactive)	4.8 µM (inactive)	4.02 µM (inactive)	4.63 µM (inactive)	12.6 µM (inactive)	6.03 µM (inactive)	6.64 µM (inactive)	3.64 µM (inactive)	3.79 µM (inactive)	33.7 µM (inactive)	20.5 µM (inactive)	10.9 µM (inactive)	12.6 µM (inactive)	6.78 µM (inactive)	12.1 µM (inactive)				
O=S(=O)(O)c1cc2ccc1/C=C\c1ccc(cc1S(=O)(=O)O)/N=N\c1ccc(c(S(=O)(=O)O)c1)/C=C\c1ccc(cc1S(=O)(=O)O)/N=N\2	> 100 µM (inactive)	> 100 µM (inactive)	> 100 µM (inactive)	> 100 µM (inactive)	> 100 µM (inactive)	> 100 µM (inactive)	> 100 µM (inactive)	> 100 µM (inactive)	> 100 µM (inactive)		> 100 µM (inactive)	> 100 µM (inactive)	> 100 µM (inactive)	> 88.3 µM (inactive)	> 100 µM (inactive)	> 100 µM (inactive)	> 100 µM (inactive)			
Cc1cccc(N2C(=O)C3c4[nH]c5ccc(C)cc5c4C4CCC(C(C)(C)C)CC4C3C2=O)c1 (configuration not stated)	32.5 µM (inactive)		23.3 µM (inactive)	17.6 µM (inactive)				19 µM (inactive)			21.4 µM (inactive)		15.8 µM (inactive)			13.3 µM (inactive)	15.5 µM (inactive)			
CCOC(=O)C(O)(NC(=O)c1ccc(F)cc1)C(F)(F)F (configuration not stated)	> 100 µM (inactive)		> 100 µM (inactive)	> 100 µM (inactive)		> 100 µM (inactive)		> 100 µM (inactive)	> 100 µM (inactive)		> 100 µM (inactive)		> 100 µM (inactive)		> 100 µM (inactive)		> 100 µM (inactive)	> 100 µM (inactive)	> 100 µM (inactive)	> 100 µM (inactive)
CC(/C=N/N=C(N)N)=N\N=C(N)N	191 µM (inactive)	246 µM (inactive)	46.6 µM (inactive)	4.15 µM (inactive)	31.6 µM (inactive)	106 µM (inactive)	13.6 µM (inactive)	4.55 µM (inactive)	32.3 µM (inactive)	16.8 µM (inactive)			61.9 µM (inactive)	2.96 µM (inactive)	6.41 µM (inactive)	8.97 µM (inactive)	3.56 µM (inactive)	33.2 µM (inactive)	15.2 µM (inactive)	> 57.3 µM (inactive)
CCOC(C)OC1CC(n2cc(C)c(=O)[nH]c2=O)OC1CO (configuration not stated)		> 100 µM (inactive)			> 100 µM (inactive)	> 100 µM (inactive)	> 100 µM (inactive)	> 100 µM (inactive)	> 100 µM (inactive)	> 100 µM (inactive)	> 100 µM (inactive)	> 100 µM (inactive)	> 100 µM (inactive)	> 100 µM (inactive)	> 100 µM (inactive)	> 100 µM (inactive)	> 100 µM (inactive)			> 100 µM (inactive)
Cc1c2c(cc3c1[nH]c1ccccc13)C(c1ccc(F)cc1)=NCC2	1.72 µM (inactive)	2.88 µM (inactive)	0.935 µM (active)	0.774 µM (active)	0.63 µM (active)	1.63 µM (inactive)	1.81 µM (inactive)	1.81 µM (inactive)	1.42 µM (inactive)	0.746 µM (active)	1.17 µM (inactive)	1.21 µM (inactive)	1.48 µM (inactive)	1.67 µM (inactive)	0.752 µM (active)	0.815 µM (active)	2.18 µM (inactive)			
Cc1ccccc1OCC(COC(=O)Nc1ccccc1)OC(=O)Nc1ccccc1 (configuration not stated)	> 100 µM (inactive)	34.4 µM (inactive)	23.3 µM (inactive)		32.1 µM (inactive)	26.8 µM (inactive)	22.2 µM (inactive)	26.5 µM (inactive)	7.24 µM (inactive)	42.6 µM (inactive)	31.6 µM (inactive)	31.1 µM (inactive)	32.7 µM (inactive)		15.8 µM (inactive)	20.2 µM (inactive)	50.9 µM (inactive)			12.1 µM (inactive)
CCCC[C@H]1[C@@H](OCOc2ccccc2)COC(=O)N1[C@H](C)c1ccccc1	4.03 µM (inactive)		10.3 µM (inactive)	> 34.3 µM (inactive)		10.2 µM (inactive)		> 49.2 µM (inactive)	19 µM (inactive)		> 34.2 µM (inactive)		8.79 µM (inactive)		7.62 µM (inactive)	12.6 µM (inactive)	16.6 µM (inactive)	20.5 µM (inactive)	11.9 µM (inactive)	8.49 µM (inactive)
Cc1[nH]c(=O)[nH]c(=O)c1C(=O)N(CCO)Cc1ccccc1			> 100 µM (inactive)			> 100 µM (inactive)			30 µM (inactive)		> 100 µM (inactive)				> 100 µM (inactive)	> 100 µM (inactive)	> 100 µM (inactive)	14.2 µM (inactive)	> 100 µM (inactive)	> 100 µM (inactive)
CC1=CC2c3cccc4[nH]cc(c34)CC2N(C)C1 (configuration not stated)	> 76.9 µM (inactive)	23.4 µM (inactive)	> 91.8 µM (inactive)	> 100 µM (inactive)	> 100 µM (inactive)	> 89.5 µM (inactive)	> 100 µM (inactive)	> 100 µM (inactive)	> 100 µM (inactive)	51.2 µM (inactive)	49.4 µM (inactive)	> 100 µM (inactive)	> 100 µM (inactive)	9.75 µM (inactive)	> 100 µM (inactive)	56.5 µM (inactive)	> 100 µM (inactive)			
Nc1ncc2c(n1)-c1ccccc1OC2	> 100 µM (inactive)	> 100 µM (inactive)	55.7 µM (inactive)	> 100 µM (inactive)	> 80.5 µM (inactive)	> 100 µM (inactive)	> 100 µM (inactive)	> 100 µM (inactive)	> 69.2 µM (inactive)	> 100 µM (inactive)	> 100 µM (inactive)	> 100 µM (inactive)	> 100 µM (inactive)	> 100 µM (inactive)	> 100 µM (inactive)	> 100 µM (inactive)	> 100 µM (inactive)			
